Target: T1, VPAC2R (vasoactive adenylate cyclase-activating polypeptide receptor type 2) (Homo sapiens, UniProt P41587)
T1 construct: expressed in transfected cells
T1 sequence (P41587 24-438): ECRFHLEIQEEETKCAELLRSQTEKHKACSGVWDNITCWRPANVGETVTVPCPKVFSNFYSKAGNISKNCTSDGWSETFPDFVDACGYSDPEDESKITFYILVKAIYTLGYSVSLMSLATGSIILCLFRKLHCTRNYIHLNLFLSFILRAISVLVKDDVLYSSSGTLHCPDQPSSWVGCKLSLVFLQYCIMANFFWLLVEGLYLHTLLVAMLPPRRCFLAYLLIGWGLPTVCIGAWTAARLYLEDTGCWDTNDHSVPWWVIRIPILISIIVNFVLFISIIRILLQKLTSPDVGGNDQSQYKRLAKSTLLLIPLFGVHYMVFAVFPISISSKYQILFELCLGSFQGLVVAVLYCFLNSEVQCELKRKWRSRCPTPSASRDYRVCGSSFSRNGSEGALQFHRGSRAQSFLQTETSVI
Experiment: Inhibition of agonist-stimulated cAMP production in CHO cells expressing VPAC2R
Assay type: cell-based
Conditions: VPAC2-stimulated
Description: Transfected Chinese hamster ovary (CHO) cell lines were acquired and maintained as previously described, [20]. These included separate cell lines stably expressing human GCGR (hGCGR), mouse GCGR, rhesus GGCR, glucose-dependent insulinotropic peptide receptor (GIPR), GLP-1 receptor (GLP-1R), pituitary adenylate cyclase-activating polypeptide receptor type 1 (PAC1R), and vasoactive adenylate cyclase-activating polypeptide receptor type 2 (VPAC2R). Inhibition of glucagon binding to hGCGR was assayed in cell membranes prepared from the line of CHO cells that expressed the hGCGR. Functional antagonism was assayed by measuring the production of cAMP in intact CHO cells stimulated by agonists specific for their cognate receptors (i.e., glucagon for GCGR-expressing cell lines, GIP for the GIPR-expressing line, etc.). Primary human hepatocytes were obtained from In Vitro Technologies (Baltimore, MD) and glucagon-stimulated glycogenolysis was studied in these as previously described.

COc1ccc2cc(-c3cc(-c4cc(C(F)(F)F)ccc4F)nn3[C@@H](C)c3ccc(C(=O)NCCC(=O)O)cc3)ccc2c1 [GRA1, N-[4-((1S)-1-{3-(2-fluoro-5-trifluoromethylphenyl)-5-[6-methoxynaphth-2-yl]-1H-pyrazol-1-yl}ethyl)benzoyl]-β-alanine]
IC50: 4.2 µM

— paper PMC3501516, “Anti-Diabetic Efficacy and Impact on Amino Acid Metabolism of GRA1, a Novel Small-Molecule Glucagon Receptor Antagonist” (PLoS ONE, 2012)
